Data taken from patent US9963448B2, “Bicyclic inhibitors of PAD4” (Padlock Therapeutics, Inc., priority 2015, dated 2018).
Structures can show the parent of a compound that is named as a salt. Where two headings read alike, the source gives them in different places.

Experiments:
[1] = biological target: hPAD4 (Homo sapiens, UniProt Q9UM07); assay: hPAD4 RFMS (RapidFire mass spectrometry) PAD4 inhibition assay; assay type: biochemical; settings: hPAD4 enzyme, RFMS readout;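 on hPAD4 RFMS pIC50: grade E means pIC50 at most 4 and F means pIC50 4.0 to 5.0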
Sequence of hPAD4 (Q9UM07 whole entry): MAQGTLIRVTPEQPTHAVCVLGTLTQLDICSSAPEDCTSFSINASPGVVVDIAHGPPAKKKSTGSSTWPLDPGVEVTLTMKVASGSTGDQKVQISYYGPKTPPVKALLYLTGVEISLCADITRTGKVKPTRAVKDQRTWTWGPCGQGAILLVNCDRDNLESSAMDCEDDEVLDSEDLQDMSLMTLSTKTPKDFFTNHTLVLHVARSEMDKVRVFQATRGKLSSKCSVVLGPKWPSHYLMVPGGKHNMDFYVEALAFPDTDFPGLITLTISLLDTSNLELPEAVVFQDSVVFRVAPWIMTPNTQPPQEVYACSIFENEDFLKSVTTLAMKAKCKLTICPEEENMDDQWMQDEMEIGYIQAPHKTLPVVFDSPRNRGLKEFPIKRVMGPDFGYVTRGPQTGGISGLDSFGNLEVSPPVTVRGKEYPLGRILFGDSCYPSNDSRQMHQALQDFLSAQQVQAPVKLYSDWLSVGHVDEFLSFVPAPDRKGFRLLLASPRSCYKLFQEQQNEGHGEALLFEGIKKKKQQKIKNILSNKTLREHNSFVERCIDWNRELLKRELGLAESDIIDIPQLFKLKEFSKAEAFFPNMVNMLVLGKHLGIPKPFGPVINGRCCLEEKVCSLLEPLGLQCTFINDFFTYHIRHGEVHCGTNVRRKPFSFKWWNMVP
Procedure: (§1) Compounds of the present invention were assayed as inhibitors of PAD4 using the assay protocol described below.
(§2) Compound stock solutions were stored at RT. […] Final assay conditions were as follows:
(§3) Total incubation time: 65 mins at 37° C.
(§4) Stop solution: 40 μl 5% TCA in ACN
(§5) The compound numbers correspond to the compound numbers in Table 1. […] The term pIC50=−log(IC50). […] “NA” stands for “not assayed.”

[2] = biological target: mPAD4 (Mus musculus, UniProt Q9Z183); assay: mPAD4 RFMS PAD4 inhibition assay; assay type: biochemical; settings: mPAD4, RFMS readout;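 on mPAD4 RFMS pIC50: grade E means pIC50 at most 4 and F means pIC50 4.0 to 5.0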
Sequence of mPAD4 (Q9Z183 whole entry): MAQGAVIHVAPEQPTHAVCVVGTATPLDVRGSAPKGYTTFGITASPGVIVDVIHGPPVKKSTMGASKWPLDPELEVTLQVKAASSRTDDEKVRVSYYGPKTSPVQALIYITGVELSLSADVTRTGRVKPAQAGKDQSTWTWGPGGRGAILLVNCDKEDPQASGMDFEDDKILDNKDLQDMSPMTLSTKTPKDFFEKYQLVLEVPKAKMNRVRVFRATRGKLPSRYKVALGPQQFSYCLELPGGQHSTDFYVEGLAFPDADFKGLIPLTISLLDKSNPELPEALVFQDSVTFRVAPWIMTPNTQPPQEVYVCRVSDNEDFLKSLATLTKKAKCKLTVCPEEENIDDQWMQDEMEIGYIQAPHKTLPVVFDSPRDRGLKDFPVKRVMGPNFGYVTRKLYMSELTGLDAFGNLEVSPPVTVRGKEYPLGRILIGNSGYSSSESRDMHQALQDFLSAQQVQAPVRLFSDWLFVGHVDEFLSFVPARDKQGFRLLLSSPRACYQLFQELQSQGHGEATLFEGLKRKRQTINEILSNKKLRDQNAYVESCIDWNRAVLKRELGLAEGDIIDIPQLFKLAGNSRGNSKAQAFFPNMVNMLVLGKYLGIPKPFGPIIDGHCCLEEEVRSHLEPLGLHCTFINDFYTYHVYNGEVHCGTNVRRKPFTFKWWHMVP
Procedure: as §1, §2, §3, §4, §5

[3] = pIC50=−log(IC50), read-out: hPAD4 RFMS pIC50 (converted)
[4] = pIC50=−log(IC50), read-out: mPAD4 RFMS pIC50 (converted)

IC50 [1, 3] | IC50 ([1]; read-out: hPAD4 RFMS IC50) | IC50 [2, 4] | IC50 ([2]; read-out: mPAD4 RFMS IC50) | hPAD4 RFMS pIC50 ([1]; pIC50=−log(IC50)) | Structure (SMILES)
< 1 µM | < 1 µM | 1 to 10 µM | 1 to 5 µM | – | CCn1c(-c2nc3cc(C(=O)N4C[C@H]5CC[C@@H]4[C@@H]5N)cc(OC)c3n2CC2CC(F)(F)C2)cc2cccnc21 [Compound I-179]
10 to 100 µM | > 10 µM | 10 to 100 µM | > 10 µM | – | COc1cc(C(=O)N2CC[C@H]3CCN[C@H]3C2)cc2nc(-c3cc4cccnc4n3CC3CC3)n(C)c12 [Compound I-17]
< 1 µM | < 1 µM | < 1 µM | < 1 µM | – | COc1cc(C(=O)N2C[C@H]3CC[C@@H]2[C@@H]3N)cc2nc(-c3cc4ccc(C(F)(F)F)nc4n3CC3CC3)n(C)c12 [Compound I-196]
1 to 10 µM | 5 to 10 µM | 1 to 10 µM | 5 to 10 µM | – | CCn1c(-c2nc3cc(C(=O)N4CCC[C@@H](N)C4)c(F)cc3n2C)cc2cccnc21 [Compound I-171]
< 1 µM | < 1 µM | < 1 µM | < 1 µM | – | COc1cc(C(=O)N2C[C@H]3CC[C@@H]2[C@@H]3N)cc2nc(-c3cc4cccnc4n3CC3CC3)n(CC(F)F)c12 [Compound I-233]
1 to 10 µM | 1 to 5 µM | 1 to 10 µM | 5 to 10 µM | – | CCn1c(-c2nc3cc(C(=O)N4CCC[C@@H](N)C4)cc(F)c3n2CC)cc2cccnc21 [Compound I-151]
< 1 µM | < 1 µM | < 1 µM | < 1 µM | – | COc1cc(C(=O)N2C[C@H](N)C[C@@H](F)C2)cc2nc(-c3cc4cccnc4n3CC3CC3)n(C)c12 [Compound I-35]
< 1 µM | < 1 µM | < 1 µM | < 1 µM | – | CCn1c(-c2nc3cc(C(=O)N4C[C@H]5CC[C@@H]4[C@@H]5N)cc(OC)c3n2C)cc2ccc(C)nc21 [Compound I-160]
10 to 100 µM | > 10 µM | 1 to 10 µM | 5 to 10 µM | – | COc1cc(C(=O)N2C[C@@H](N)CC[C@H]2CO)cc2nc(-c3cc4cccnc4n3CC3CC3)n(C)c12 (single isomer, unassigned) [Compound I-229]
1 to 10 µM | 5 to 10 µM | 10 to 100 µM | > 10 µM | – | COc1cc2c(cc1C(=O)N1CCC[C@@H](N)C1)nc(-c1cc3cccnc3n1CC1CC1)n2C [Compound I-68, (3R)-1-{2-[1-(cyclopropylmethyl)-1H-pyrrolo[2,3-b]pyridin-2-yl]-6-methoxy-1-methyl-1H-1,3-benzodiazole-5-carbonyl}piperidin-3-amine hydrochloride]
< 1 µM | < 1 µM | 1 to 10 µM | 1 to 5 µM | – | Cn1c(-c2cc3cccnc3n2CC2CC2)nc2cc(C(=O)N3C[C@H]4CC[C@@H]3[C@@H]4N)cc(F)c21 [Compound I-191]
< 1 µM | < 1 µM | – | – | – | COc1cc(C(=O)N2C[C@H]3CCC2[C@H]3N)cc2nc(-c3cc4cc(/C=C/CC(C)C)ccc4n3CC3CC3)n(C)c12 [Compound I-358]
10 to 100 µM | > 10 µM | – | – | – | CCn1c(-c2nc3cc(C(=O)N4CC[C@H]5CCN[C@H]5C4)cc(OC)c3n2C)cc2cccnc21 (single isomer, unassigned) [Compound I-14]
10 to 100 µM | > 10 µM | – | – | – | Cn1c(-c2cc3cccnc3n2CC2CC2)nc2cc(C(=O)N3C4CCC(N)C3CC4)ccc21 (stereo not shown) [Compound I-63]
10 to 100 µM | > 10 µM | – | – | – | Cn1c(-c2cc3cccnc3n2CC2CC2)nc2cc(C(=O)N3CCC[C@H]4NCC[C@H]43)ccc21 [Compound I-60]
< 1 µM | < 1 µM | – | – | – | COc1cc(C(=O)N2CCC3CCNC3C2)cc2nc(-c3cc4cccnc4n3CC3CC3)n(C)c12 (stereo not shown) [Compound I-8]
10 to 100 µM | > 10 µM | – | – | – | COc1cc(C(=O)N2CC[C@@H]3CCN[C@@H]3C2)cc2nc(-c3cc4cncnc4n3CC3CC3)n(C)c12 [Compound I-4, 5-[(3aS,7aS)-octahydro-1H-pyrrolo[2,3-c]pyridine-6-carbonyl]-2-[7-(cyclopropylmethyl)-7H-pyrrolo[2,3-d]pyrimidin-6-yl]-7-methoxy-1-methyl-1H-1,3-benzodiazole]
1 to 10 µM | 5 to 10 µM | – | – | – | COc1cc(C(=O)N2CCC3CCNC3C2)cc2nc(-c3cc4cncnc4n3CC3CC3)n(C)c12 (stereo not shown) [Compound I-15, 2-[7-(cyclopropylmethyl)-7H-pyrrolo[2,3-d]pyrimidin-6-yl]-7-methoxy-1-methyl-5-{octahydro-1H-pyrrolo[2,3-c]pyridine-6-carbonyl}-1H-1,3-benzodiazole]
< 1 µM | < 1 µM | – | – | – | COc1cc(C(=O)N2C[C@H]3CC[C@@H]2[C@@H]3N)cc2nc(-c3cc4ccc(NCCC5CC5)cc4n3CC3CC3)n(C)c12 [Compound I-375]
10 to 100 µM | > 10 µM | – | – | – | Cn1c(-c2cc3cccnc3n2CC2CC2)nc2cc(C(=O)N3C[C@H](N)C[C@H](F)C3)ccc21 [Compound I-67]
< 1 µM | < 1 µM | – | – | – | COc1cc(C(=O)N2C[C@H]3CC[C@@H]2[C@@H]3N)cc2nc(-c3cc4ccc(N(C)CCC5CC5)cc4n3CC3CC3)n(C)c12 [Compound I-376]

IC50 [1, 3] | IC50 ([1]; read-out: hPAD4 RFMS IC50) | IC50 [2, 4] | IC50 ([2]; read-out: mPAD4 RFMS IC50) | hPAD4 RFMS pIC50 ([1]; pIC50=−log(IC50)) | Structure (SMILES)
10 to 100 µM | > 10 µM | – | – | – | CCn1c(-c2nc3cc(C(=O)N4CC[C@@H]5CCN[C@@H]5C4)ccc3n2C)cc2cccnc21 [Compound I-5]
– | 1 to 5 µM | – | – | G/H | COc1cc(C(=O)N2C[C@H]3CC[C@@H]2[C@@H]3N)cc2nc(-c3cc4cc(NCC5CC5)ccc4n3CC3CC3)n(C)c12 [Compound I-372]
< 1 µM | < 1 µM | – | – | – | COc1ccc2cc(-c3nc4cc(C(=O)N5C[C@H]6CC[C@@H]5[C@@H]6N)ccc4n3C)n(CC3CC3)c2n1 [Compound I-353, ((1R,4R,7R)-7-amino-2-azabicyclo[2.2.1]heptan-2-yl)(2-(1-(cyclopropylmethyl)-6-methoxy-1H-pyrrolo[2,3-b]pyridin-2-yl)-1-methyl-1H-benzo[d]imidazol-5-yl)methanone]
10 to 100 µM | > 10 µM | – | – | – | Cn1c(-c2cc3cccnc3n2CC2CC2)nc2cc(C(=O)N3CCCC4(CCCN4)C3)ccc21 (stereo not shown) [Compound I-41]
1 to 10 µM | 5 to 10 µM | – | – | – | CCn1c(-c2nc3cc(C(=O)N4CCC5CCNC5C4)ccc3n2C)cc2cccnc21 (stereo not shown) [Compound I-16]
< 1 µM | < 1 µM | – | – | – | Cn1c(-c2cc3ccccc3n2CC2CC2)nc2cc(C(=O)N3CC[C@H]4CCN[C@H]4C3)ccc21 [Compound I-7]
10 to 100 µM | > 10 µM | – | – | – | Cn1c(-c2cc3ccccc3n2CC2CC2)nc2cc(C(=O)N3CC[C@@H]4CCN[C@@H]4C3)ccc21 [Compound I-2]
1 to 10 µM | 1 to 5 µM | – | – | – | COc1cc(C(=O)N2CC[C@@H](F)[C@H](N)C2)cc2nc(-c3cc4cccnc4n3CC3CC3)n(C)c12 [Compound I-57]
< 1 µM | < 1 µM | – | – | – | COc1cc(C(=O)N2C[C@H]3CCC2[C@H]3N)cc2nc(-c3cc4ccc(/C=C/c5ccc(C(F)(F)F)cc5)cc4n3CC3CC3)n(C)c12 [Compound I-367]
> 100 µM | > 10 µM | – | – | – | Cn1c(-c2cc3cccnc3n2CC2CC2)nc2cc(C(=O)N3CCCC4(CCN4)C3)ccc21 (stereo not shown) [Compound I-42]
> 100 µM | > 10 µM | – | – | – | Cn1c(-c2cc3cccnc3n2CC2CC2)nc2cc(C(=O)N3CCCC4(CCNC4)C3)ccc21 (stereo not shown) [Compound I-46]
< 1 µM | < 1 µM | – | – | – | COc1cc(C(=O)N2C[C@H]3CCC2[C@H]3N)cc2nc(-c3cc4cc(/C=C/C5CC5)ccc4n3CC3CC3)n(C)c12 [Compound I-357]
< 1 µM | < 1 µM | – | – | – | COc1cc(C(=O)N2C[C@H]3CCC2[C@H]3N)cc2nc(-c3cc4ccc(/C=C/CCc5ccccc5)cc4n3CC3CC3)n(C)c12 [Compound I-369]
< 1 µM | < 1 µM | – | – | – | COc1cc(C(=O)N2C[C@H]3CCC2[C@H]3N)cc2nc(-c3cc4ccc(C5=Cc6ccccc6C5)cc4n3CC3CC3)n(C)c12 [Compound I-368]
> 100 µM | > 10 µM | – | – | – | Cn1c(-c2cc3cccnc3n2CC2CC2)nc2cc(C(=O)N3CCC[C@H]4CNC[C@H]43)ccc21 [Compound I-44]
1 to 10 µM | 1 to 5 µM | – | – | – | COCCn1c(-c2nc3cc(C(=O)N4C[C@H](N)CC[C@@H]4C)cc(OC)c3n2C)cc2cccnc21 (racemic) [Compound I-170]
> 100 µM | > 10 µM | – | – | – | Cn1c(-c2cc3cccnc3n2CC2CC2)nc2cc(C(=O)N3CCCC4(CCCNC4)C3)ccc21 (stereo not shown) [Compound I-45]
< 1 µM | < 1 µM | – | – | – | COc1cc(C(=O)N2C[C@H]3CCC2[C@H]3N)cc2nc(-c3cc4ccc(/C=C/Cc5ccccc5)cc4n3CC3CC3)n(C)c12 [Compound I-366]
< 1 µM | < 1 µM | – | – | – | COc1cc(C(=O)N2C[C@H]3CC[C@H]2[C@H]3N)cc2nc(-c3cc4cc(/C=C/c5ccc(C(F)(F)F)cc5)ccc4n3CC3CC3)n(C)c12 [Compound I-361, ((1S,4R)-7-amino-2-azabicyclo[2.2.1]heptan-2-yl)(2-(1-(cyclopropylmethyl)-5-((E)-4-(trifluoromethyl)styryl)-1H-indol-2-yl)-7-methoxy-1-methyl-1H-benzo[d]imidazol-5-yl)methanone]
> 100 µM | > 10 µM | – | – | – | Cn1c(-c2cc3cccnc3n2CC2CC2)nc2cc(C(=O)N3CCCC4NCCCC43)ccc21 (stereo not shown) [Compound I-53]

Structure (SMILES) | IC50 [1, 3] | IC50 ([1]; read-out: hPAD4 RFMS IC50) | IC50 [2, 4] | IC50 ([2]; read-out: mPAD4 RFMS IC50) | hPAD4 RFMS pIC50 ([1]; pIC50=−log(IC50))
Cn1c(-c2cc3cccnc3n2CC2CC2)nc2cc(C(=O)N3C4CCC3CC(N)C4)ccc21 (stereo not shown) [Compound I-47] | > 100 µM | > 10 µM | – | – | –
